Strand notation (5' to 3'): a small letter for the sugar, then the base; units joined by * are phosphorothioate-linked, units joined directly phosphodiester-linked; [ ] holds rarer units or linkages, { } end groups; capitals alone tell only the bases. e = 2'-O-(2-methoxyethyl) (MOE); [5mC] = 5-methylcytosine; d = 2'-deoxy (DNA)
What was measured:
[1] = tested on: human PKK mRNA; assay: Antisense inhibition of human PKK mRNA in HepaRG cells, 5,000 nM (Example 2); type: cell-based
Outline: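 qRT-PCR (RTS3454) read-out, RIBOGREEN-normalized; % inhibition vs untreated cells. HepaRG, 20,000 cells/well, electroporation, 5,000 nM ASO, ~24 h.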

[2] = tested on: human PKK mRNA; assay: Dose-dependent antisense inhibition of human PKK in HepaRG cells, 0.19-5.00 uM (Example 5); type: cell-based; conditions: for percent inhibition of PKK mRNA, 0.19 μM: 0.19 μM antisense oligonucleotide; for percent inhibition of PKK mRNA, 0.56 μM: 0.56 μM antisense oligonucleotide; for percent inhibition of PKK mRNA, 1.67 μM: 1.67 μM antisense oligonucleotide; for percent inhibition of PKK mRNA, 5.00 μM: 5.00 μM antisense oligonucleotide
Outline: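 PKK mRNA knockdown was measured by real-time PCR (primer probe set RTS3454) about 16 h after electroporating 20,000 HepaRG cells per well with oligonucleotide at four doses from 0.19 to 5.00 μM. Levels were adjusted to RIBOGREEN-measured total RNA, and IC50 values were calculated.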

[3] = HepaRG cells, electroporation, approximately 16 hours, Table 38
[4] = HepaRG cells, electroporation, approximately 16 hours, Table 35
[5] = 4 point dose response, HepaRG cells, Table 35
[6] = Table 13, human PKK mRNA in HepaRG cells, 5-10-5 gapmers
[7] = Table 34, HepaRG, electroporation, ~16 h
[8] = Table 34, PKK mRNA, HepaRG, electroporation, ~16 h
[9] = HepaRG cells, electroporation with 5,000 nM antisense oligonucleotide, approximately 24 hours, PKK mRNA by RT-PCR (RTS3454), relative to untreated control cells, Table 5 experiment
[10] = HepaRG cells, electroporation, approximately 16 hours, Table 40
[11] = HepaRG cells, electroporation, approximately 16 hours, Table 37
[12] = HepaRG cells, electroporation, approximately 16 hours, Table 41
[13] = 4 point dose response, HepaRG cells, Table 41

Substance: 546195 (antisense eG*e[5mC]*eT*eA*eA*d[5mC]*d[5mC]*dT*dT*dA*dG*dA*d[5mC]*dA*d[5mC]*eA*eT*eT*eA*eA) [compound 546195]
- % inhibition ([1]; HepaRG cells, electroporation with 5,000 nM antisense oligonucleotide, approximately 24 hours, PKK mRNA by RT-PCR (RTS3454), relative to untreated control cells, Table 6 experiment): 83%
- percent inhibition of PKK at 0.19 μM [2, 3]: 34%
- percent inhibition of PKK at 0.56 μM [2, 3]: 51%
- percent inhibition of PKK at 1.67 μM [2, 3]: 79%
- percent inhibition of PKK at 5.00 μM [2, 3]: 92%
- IC50 ([2]; 4 point dose response, HepaRG cells, Table 38): 500 nM
- percent inhibition of PKK mRNA, 0.19 μM ([2]; HepaRG cells): 0%
- percent inhibition of PKK mRNA, 0.56 μM ([2]; HepaRG cells): 27%
- percent inhibition of PKK mRNA, 1.67 μM ([2]; HepaRG cells): 91%
- percent inhibition of PKK mRNA, 5.00 μM ([2]; HepaRG cells): 94%
- IC50 ([2]; HepaRG cells, 0.19-5.00 μM): 900 nM

Substance: 546889 (eG*eT*e[5mC]*e[5mC]*eT*dA*dT*dG*dT*d[5mC]*dA*d[5mC]*dT*dG*dT*eA*e[5mC]*e[5mC]*eT*eA; antisense) [compound 546889]
- % inhibition ([1]; human PKK mRNA, HepaRG cells, 5-10-5 motif oligonucleotides targeting SEQ ID NO: 1 and 10): 93%
- percent inhibition of PKK at 0.19 μM [2, 4]: 23%
- percent inhibition of PKK at 0.56 μM [2, 4]: 54%
- percent inhibition of PKK at 1.67 μM [2, 4]: 78%
- percent inhibition of PKK at 5.00 μM [2, 4]: 91%
- IC50 [2, 5]: 600 nM
- percent inhibition of PKK mRNA, 0.19 μM ([2]; HepaRG cells): 25%
- percent inhibition of PKK mRNA, 0.56 μM ([2]; HepaRG cells): 9%
- percent inhibition of PKK mRNA, 1.67 μM ([2]; HepaRG cells): 73%
- percent inhibition of PKK mRNA, 5.00 μM ([2]; HepaRG cells): 92%
- IC50 ([2]; HepaRG cells, 0.19-5.00 μM): 1400 nM

Substance: 546829 (eA*eA*e[5mC]*eA*eG*dT*dA*dT*d[5mC]*dA*d[5mC]*dT*dG*dT*dA*e[5mC]*eT*eA*eG*eT; antisense) [compound 546829]
- % inhibition [1, 6]: 94%
- percent inhibition of PKK at 0.19 μM [2, 7]: 3%
- percent inhibition of PKK at 0.56 μM [2, 7]: 30%
- percent inhibition of PKK at 1.67 μM [2, 7]: 73%
- percent inhibition of PKK at 5.00 μM [2, 7]: 88%
- IC50 [2, 8]: 1000 nM

Substance: 547288 (antisense e[5mC]*eA*eT*eA*eG*dA*dG*dT*dT*dG*dA*dG*dT*d[5mC]*dA*eG*eA*e[5mC]*eA*eT) [compound 547288]
- % inhibition [1, 9]: 80%
- percent inhibition of PKK at 0.19 μM [2, 10]: 0%
- percent inhibition of PKK at 0.56 μM [2, 10]: 0%
- percent inhibition of PKK at 1.67 μM [2, 10]: 0%
- percent inhibition of PKK at 5.00 μM [2, 10]: 38%
- IC50 ([2]; 4 point dose response, HepaRG cells, Table 40): > 5000 nM

Substance: 546739 (eA*eT*eT*e[5mC]*eG*dG*dT*dG*dT*d[5mC]*dT*dT*dT*dA*d[5mC]*eT*eG*eG*e[5mC]*eT; antisense) [compound 546739]
- % inhibition [1, 6]: 89%
- percent inhibition of PKK at 0.19 μM [2, 11]: 35%
- percent inhibition of PKK at 0.56 μM [2, 11]: 55%
- percent inhibition of PKK at 1.67 μM [2, 11]: 57%
- percent inhibition of PKK at 5.00 μM [2, 11]: 79%
- IC50 ([2]; 4 point dose response, HepaRG cells, Table 37): 600 nM
- percent inhibition of PKK mRNA, 0.19 μM ([2]; HepaRG cells): 4%
- percent inhibition of PKK mRNA, 0.56 μM ([2]; HepaRG cells): 62%
- percent inhibition of PKK mRNA, 1.67 μM ([2]; HepaRG cells): 84%
- percent inhibition of PKK mRNA, 5.00 μM ([2]; HepaRG cells): 86%
- IC50 ([2]; HepaRG cells, 0.19-5.00 μM): 600 nM

Substance: 547273 (antisense eT*eG*eA*eG*eT*d[5mC]*dT*d[5mC]*dT*dT*dG*dT*d[5mC]*dA*d[5mC]*eT*eT*eA*eA*eA) [compound 547273]
- % inhibition [1, 9]: 93%
- percent inhibition of PKK at 0.19 μM [2, 4]: 44%
- percent inhibition of PKK at 0.56 μM [2, 4]: 69%
- percent inhibition of PKK at 1.67 μM [2, 4]: 87%
- percent inhibition of PKK at 5.00 μM [2, 4]: 87%
- percent inhibition of PKK at 5.00 μM [2, 12]: 83%
- percent inhibition of PKK at 0.19 0μM [2, 12]: 0%
- percent inhibition of PKK at 0.56 0μM [2, 12]: 60%
- percent inhibition of PKK at 1.67 1μM [2, 12]: 82%
- IC50 [2, 5]: 200 nM
- IC50 [2, 13]: 600 nM

Substance: 548758 (antisense e[5mC]*eA*eG*eT*dA*dT*d[5mC]*dA*d[5mC]*dT*dG*dT*dA*e[5mC]*eT*eA*eG) [compound 548758]
- % inhibition ([1]; human PKK mRNA, HepaRG cells, 5,000 nM antisense oligonucleotide, Table 18): 97%
- percent inhibition of PKK at 0.19 0μM [2, 12]: 0%
- percent inhibition of PKK at 0.56 0μM [2, 12]: 72%
- percent inhibition of PKK at 1.67 1μM [2, 12]: 79%
- IC50 [2, 13]: 600 nM
- percent inhibition of PKK at 0.19 μM [2, 7]: 41%
- percent inhibition of PKK at 0.56 μM [2, 7]: 47%
- percent inhibition of PKK at 1.67 μM [2, 7]: 82%
- percent inhibition of PKK at 5.00 μM [2, 7]: 94%
- IC50 [2, 8]: 400 nM
